Experimental data taken from patent US8853261B2, “Nutraceutical composition from Garcinia mangostana” (Laila Nutraceuticals, priority 2008, dated 2014).
“And” between values parts separate entries of the source, which are not always exact repeats. Equal values may be shown once. “Also recorded” adds a separate entry of the source.

Assays:
TNF-α = experiment: Inhibition of LPS-induced TNF-α in THP-1 human monocytes (EIA); type: cell-based; conditions: THP-1 cells, 2 h pretreatment, 100 ng/ml LPS 4 h
Description: Inhibition of Tumor necrosis factor-α (TNF-α) in vitro by α-mangostin and γ-mangostin: The anti-inflammatory activities of α-mangostin, γ-mangostin and composition-I were assessed in a cell based in vitro assay. Briefly, THP-1 human monocytes cells were washed and re-suspended in phenol red free Dulbecco's Modified Eagle's Medium (DMEM) supplemented with 1% fetal Bovine serum (FBS). Equal number of cells was added to each well of a 96-well TC plate and the cells were pretreated for 2 h with various concentrations of test substances (ranging from 0.5 to 50 μg/ml; solutions prepared in culture medium from a stock solution containing 50 mg/l mL DMSO of each test compound) of α-mangostin, γ-mangostin and composition-I. The inflammatory response was induced by treatment with 100 ng/ml of LPS for 4 h at 37° C. in presence of 5% CO2. The vehicle control culture wells received 0.1% DMSO in culture medium. The cell culture supernatants were collected and assessed for secretary pro-inflammatory cytokine, TNFα. The TNF-α concentration was quantitatively measured by highly specific and sensitive Enzyme Immuno Assay (EIA) kit supplied by R&D Systems, USA. The enzyme immuno assay was performed based on the protocol provided by the vendor. The inhibitory concentration for 50% inhibition (IC50) of TNF-α was determined from a plot drawn for ingredient concentration against TNF-α level.

[1] = system: adipocyte fatty acid-binding protein (aP2); experiment: Down-regulation of aP2 protein expression in LPS-induced THP-1 derived macrophages (Western blot); type: cell-based, human; conditions: 5 μg/ml, 2 h pretreatment, LPS 100 ng/ml 16 h, normalized to actin
Description: The inventors also assessed the effect of α-mangostin and γ-mangostin on adipocyte fatty acid-binding protein aP2 expression in human monocytes-macrophage cells in a cell based in vitro model. In this experiment, THP-1 human monocyte-macrophage cells were pre-treated with 5 μg/ml of γ-mangostin or α-mangostin for 2 h and thereafter primed with LPS to induce the inflammatory response. The cellular proteins were extracted by cell lysis buffer and subjected to immuno-western blot to detect the modulation of expression of aP2 protein.
Down-regulation of aP2 protein expression by α-mangostin and γ-mangostin was evaluated in a cell based in vitro model. […] The protein content was measured by Coomassie blue based Bradford method and equal amount of cellular protein lysates (2 μg) was resolved in 15% SDS-Polyacrylamide gels. […] The aP2 protein expression was specifically detected by chemiluminescent substrate (Pierce, USA); detection of chemiluminescent bands and densitometric analyses were carried out on Kodak 4000 mM image station (supplied by Kodak, USA). The same nitrocellulose blots were stripped and re-probed with anti-actin antibody (Sigma Chemical CO, USA) and actin protein expression was recorded as an indication of equal protein loading in each lane. […]

potato 5-lipoxygenase = experiment: 5-Lipoxygenase enzyme inhibitory activity; type: biochemical; conditions: for 5-Lipoxygenase inhibitory activity IC50 values: potato 5-lipoxygenase, linoleic acid substrate
Description: 5-Lipoxygenase enzyme inhibitory activity was measured using the method of Schewe et al. (Adv Enzymol, Vol 58: pp 191-272, 1986), modified by Reddanna et. al., (Methods of Enzymology, Vol 187: pp 268-277, 1990). The assay mixture contained 80 μM linoleic acid and sufficient amount of potato 5-lipoxygenase in 50 mM phosphate buffer (pH 6.3). The reaction was initiated by the addition of enzyme buffer mix to linoleic acid and the enzyme activity was monitored as the increase in absorbance at 234 nm. The reaction was monitored for 120 sec and the inhibitory potential of the test substances was measured by incubating various concentrations of test substances two minutes before the addition of linoleic acid. All assays were performed three times. The IC50 values were calculated from the plot drawn of the concentrations of test substances versus percentage inhibition.

Molecule: CC(C)=CCc1c(O)cc2oc3cc(O)c(O)c(CC=C(C)C)c3c(=O)c2c1O [γ-mangostin]
- IC50 for TNFα (TNF-α): 3.32 µg/mL and 3.322 µg/mL
- Inhibition of LPS induced aP2 protein expression [1]: more potent inhibitor of aP2 in vitro compared to α-mangostin; also recorded: inhibited the LPS induced aP2 expression more strongly compared to α-mangostin
- 5-Lipoxygenase inhibitory activity IC50 values (potato 5-lipoxygenase): 0.52 µg/mL

Molecule: Garcinone C
- Relative potency of O-demethylxanthone versus O-methyl counterpart (potato 5-lipoxygenase; comparison in words): relatively higher potency compared to its natural O-methyl counterpart, garcinone D
- 5-Lipoxygenase inhibitory activity IC50 values (potato 5-lipoxygenase): 2.8 µg/mL

Molecule: COc1c(O)cc2oc3cc(O)c(CC=C(C)C)c(O)c3c(=O)c2c1CCC(C)(C)O [Garcinone D]
- 5-Lipoxygenase inhibitory activity IC50 values (potato 5-lipoxygenase): 5.7 µg/mL

Molecule: COc1c(O)cc2oc3cc(O)c(CC=C(C)C)c(O)c3c(=O)c2c1CC=C(C)C [α-mangostin]
- Inhibition of LPS induced aP2 protein expression [1]: inhibition of aP2 protein expression
